Test results reported in patent US20090216187A1, “Method of Treatment of Vascular Diseases” (priority 2008, published 2009).
Where two headings read alike, the source gives them in different places.

Key:
[1] = cited from earlier work
[2] = renal elimination after incorporation (animal experimental data); type: in vivo
Source text: To date one accidental Rhenium-188 incorporation caused by balloon rupture has been reported. The measured total body dose of the treated patient was 113 mGy (image-based analysis) and 88 mGy (biological analysis), respectively. Thus, the measured radiation exposures were within the theoretical calculated ranges. [Paeng J. C., Lee D. S., Kang W. J., Yang H. M., Chung J. K., Jeong J. M., Chae I. H., Lee M. M., Lee M. C. “Dosimetry in leakage of (188)Re-DTPA during intracoronary balloon brachytherapy” Eur. J. Nucl. Med. Mol. Imaging. 2003; 30(9): 1263-1265]. […] Therefore, Rhenium-188 will remain in the body for about 2 days after incorporation. In the body Rhenium-188 is mainly absorbed by the thyroid (0.0167 mGy/MBq) and the stomach (0.013 mGy/MBq) [Knapp F. F., Jr., Guhlke S., Beets A. L., Lin W. Y., Stabin M., Amols H., Weinberger J. “Endovascular beta irradiation for prevention of restenosis using solution radioisotopes: pharmacologic and dosimetric properties of rhenium-188 compounds.” Cardiovasc. Radiat. Med. 1999; 1(1): 86-97; Lin W. Y., Tsai S. C., Hsieh B. T. Lee T. W., Ting G., Wang S. J “Evaluation of three rhenium-188 candidates for intravascular radiation therapy with liquid-filled balloons to prevent restenosis” J. Nucl. Cardiol. 2000; 7(1): 37-42]. […]

[3] = patient after balloon rupture, cited from earlier work
[4] = renal elimination after incorporation; animal experimental data; cited from earlier work
[5] = subsequent oral administration of perchlorate after Rhenium-188 incorporation; cited from earlier work
[6] = complete accidental incorporation of a balloon filling of about 3 ml; cited from earlier work

What does the source list for [188Re] [Rhenium-188]?
absorbed dose ([1]; stomach): 0.013 mGy/MBq; absorbed dose ([1]; thyroid): 0.0167 mGy/MBq; time remaining in the body after incorporation [2]: about 2 days; measured total body dose ([3]; biological analysis): 88 mGy; measured total body dose ([3]; image-based analysis): 113 mGy; elimination half-life [4]: about 7 h

For [O-][Cl+3]([O-])([O-])O [perchlorate], which “whole-body radiation reduced to” value [5] is on record?
The value was 38%.

For Rhenium-188-DPTA, which “theoretical calculated total body dose” value [6] is on record?
The value was “approximately 63 mGy”.
